Measured values reported in patent US20080227710A1, “Use of Conjugates of Doxorubicin with Lactosaminated Albumin” (priority 2005, published 2008).

Experiment: DOXO concentrations in HCCs, heart and intestine of rats with DENA-induced HCCs
Type: in vivo, rat
Details: 4 h after i.v. injection, DOXO measured as free drug, mean ± standard error
Experimental: HCCs were induced by diethyInitrosamine (DENA) given in the drinking water (100 mg/l) for 8 weeks. […] Compounds were injected in the dorsal vein of penis, in a volume of 10 μl/10 g body weight, under isoflurane anaesthesia. For each compound four rats were used. Four hours after the injection the animals were killed under isoflurane anaesthesia. Organs were rapidly removed and frozen and neoplastic nodules were accurately dissected from the surrounding liver. A part of each tumor nodule was frozen; the other part was fixed in 10% formalin and processed for histology. Samples of frozen organs and nodules were used for radioactivity count and determination of DOXO levels. DOXO was measured according to Bots A M, et al. (Analysis of adriamycin . . . J Chromatogr 1983; 272: 421-427), with modifications (Di Stefano G, et al. Doxorubicin coupled to lactosaminated . . . Dig Liver Dis 2003; 35: 428-433).

DOXO concentration, nmoles DOXO/g, Heart (heart): 4.7 ± 0.3 nmoles DOXO/g
DOXO concentration, nmoles DOXO/g, Intestine (intestine): 4.2 ± 0.6 nmoles DOXO/g
DOXO concentration, nmoles DOXO/g, MD HCCs (moderately differentiated HCCs): 3.1 ± 0.4 nmoles DOXO/g
DOXO concentration, nmoles DOXO/g, PD HCCs (poorly differentiated HCCs): 3.6 ± 0.4 nmoles DOXO/g
DOXO concentration, nmoles DOXO/g, WD HCCs (well differentiated HCCs): 3.4 ± 0.6 nmoles DOXO/g
Compound: COc1cccc2c1C(=O)c1c(O)c3c(c(O)c1C2=O)C[C@@](O)(C(=O)CO)C[C@@H]3O[C@H]1C[C@H](N)[C@H](O)[C@H](C)O1 [DOXO, doxorubicin]
